# Key:
# [1] = tested on: DOHH2 cells; assay: Cell proliferation assay (MTS), DOHH2 cells, 120 h; format: cell-based; settings: Homo sapiens, DOHH-2, 120 h
# How it was run: (§1)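 RS4;11 and DOHH2 cells at 5000 cells/well in RPMI-1640 with 10% FBS were treated with compound at 1.5–10000 nM final, nine points, at 37 °C, 5% CO2. Exposure was 72 h for RS4;11 and 120 h for DOHH2. MTS was added for 2 h, absorbance read at 490/650 nm, and IC50 calculated.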
# [2] = tested on: RS4;11 cells; assay: Cell proliferation assay (MTS), RS4;11 cells, 72 h; format: cell-based; settings: Homo sapiens, RS4-11, 72 h
# How it was run: as §1
Structure (SMILES),IC50 [2] [nM],IC50 [1] [nM]
"CC1(C)CCC(CN2CCN(c3ccc(C(=O)NS(=O)(=O)c4cc5c(c([N+](=O)[O-])c4)N[C@@H](CC4CCC(C)(O)CC4)CO5)c(Oc4cnc5[nH]ccc5c4)c3)CC2)=C(c2ccc(Cl)cc2)C1 (stereo partly drawn) [Example 2-216, (S)-2-((1H-pyrrolo[2,3-b]pyridin-5-yl)oxy)-4-(4-((4′-chloro-5,5-dimethyl-3,4,5,6-tetra-hydro-[1,1′-biphenyl]-2-yl)methyl)piperazin-1-yl)-N-((3-((4-hydroxy-4-methylcyclohex-yl)methyl)-5-nitro-3,4-dihydro-2H-benzo [b][1,4]oxazin-7-yl)sulfonyl)benzamide]",13,268
"CC1(C)CCC(CN2CCN(c3ccc(C(=O)NS(=O)(=O)c4cc5c(c([N+](=O)[O-])c4)N[C@@H](CO)CO5)c(Oc4cnc5[nH]ccc5c4)c3)CC2)=C(c2ccc(Cl)cc2)C1 [Example 2-220, (S)-2-((1H-pyrrolo[2,3-b]pyridin-5-yl)oxy)-4-(4-((4′-chloro-5,5-dimethyl-3,4,5,6-tetra-hydro-[1,1′-biphenyl]-2-yl)methyl)piperazin-1-yl)-N-((3-(hydroxymethyl)-5-nitro-3,4-dihydro-2H-benzo[b][1,4]oxazin-7-yl)sulfonyl)benzamide]",8,36
"CC1(C)CCC(CN2CCN(c3ccc(C(=O)NS(=O)(=O)c4cc5c(c([N+](=O)[O-])c4)N[C@@H](CC4CCNCC4)CO5)c(Oc4cnc5[nH]ccc5c4)c3)CC2)=C(c2ccc(Cl)cc2)C1 [Example 2-221, (S)-2-((1H-pyrrolo[2,3-b]pyridin-5-yl)oxy)-4-(4-((4′-chloro-5,5-dimethyl-3,4,5,6-tetra-hydro-[1,1′-biphenyl]-2-yl)methyl)piperazin-1-yl)-N-((5-nitro-3-(piperidin-4-ylmethyl)-3,4-dihydro-2H-benzo[b][1,4]oxazin-7-yl)sulfonyl)benzamide]",30,474
"CC1(C)CCC(CN2CCN(c3ccc(C(=O)NS(=O)(=O)c4cc5c(c([N+](=O)[O-])c4)N[C@H](C4CCN(C(=O)OC(C)(C)C)CC4)CO5)c(Oc4cnc5[nH]ccc5c4)c3)CC2)=C(c2ccc(Cl)cc2)C1 [Example 2-222, tert-btuyl (R)-4-(7-(N-(2-((1H-pyrrolo[2,3-b]pyridin-5-yl)oxy)-4-(4-((4′-chloro-5,5-dimethyl-3,4,5,6-tetrahydro-[1,1′-biphenyl]-2-yl)methyl)piperazin-1-yl)benzoyl)sulfamoyl)-5-nitro-3,4-dihydro-2H-benzo[b][1,4]oxazin-3-yl) piperidine-1-carboxylate]",25,3
"CC(=O)N1CCC([C@@H]2COc3cc(S(=O)(=O)NC(=O)c4ccc(N5CCN(CC6=C(c7ccc(Cl)cc7)CC(C)(C)CC6)CC5)cc4Oc4cnc5[nH]ccc5c4)cc([N+](=O)[O-])c3N2)CC1 [Example 2-224, (R)-2-((1H-pyrrolo[2,3-b]pyridin-5-yl)oxy)-N-((3-(1-acetylpiperidin-4-yl)-5-nitro-3,4-dihydro-2H-benzo[b][1,4]oxazin-7-yl)sulfo-nyl)-4-(4-((4′-chloro-5,5-dimethyl-3,4,5,6-tetrahydro-[1,1′-biphenyl]-2-yl)methyl)piper-azin-1-yl)benzamide]",4,3
"CC1(C)CCC(CN2CCN(c3ccc(C(=O)NS(=O)(=O)c4cc5c(c([N+](=O)[O-])c4)N[C@H](C4CCNCC4)CO5)c(Oc4cnc5[nH]ccc5c4)c3)CC2)=C(c2ccc(Cl)cc2)C1 [Example 2-226, (R)-2-((1H-pyrrolo[2,3-b]pyridin-5-yl)oxy)-4-(4-((4′-chloro-5,5-dimethyl-3,4,5,6-tetra-hydro-[1,1′-biphenyl]-2-yl)methyl)piperazin-1-yl)-N-((5-nitro-3-(piperidin-4-yl)-3,4-dihydro-2H-benzo[b][1,4]oxazin-7-yl)sulfo-nyl)benzamide]",10,48
"CC1(C)CCC(CN2CCN(c3ccc(C(=O)NS(=O)(=O)c4cc5c(c([N+](=O)[O-])c4)N[C@@H](C4CCN(C(=O)OC(C)(C)C)CC4)CO5)c(Oc4cnc5[nH]ccc5c4)c3)CC2)=C(c2ccc(Cl)cc2)C1 [Example 2-229, tert-butyl (S)-4-(7-(N-(2-((1H-pyrrolo[2,3-b]pyridin-5-yl)oxy)-4-(4-((4′-chloro-5,5-dimethyl-3,4,5,6-tetrahydro-[1,1′-biphenyl]-2-yl)meth-yl)piperazin-1-yl)benzoyl)sulfamoyl)-5-nitro-3,4-dihydro-2H-benzo[b][1,4]oxazin-3-yl)piperidine-1-carboxylate]",38,1
"CC1(C)CCC(CN2CCN(c3ccc(C(=O)NS(=O)(=O)c4cc5c(c([N+](=O)[O-])c4)N[C@@H](C4CCN(S(C)(=O)=O)CC4)CO5)c(Oc4cnc5[nH]ccc5c4)c3)CC2)=C(c2ccc(Cl)cc2)C1 [Example 2-232, (S)-2-((1H-pyrrolo[2,3-b]pyridin-5-yl)oxy)-4-(4-((4′-chloro-5,5-dimethyl-3,4,5,6-tetra-hydro-[1,1′-biphenyl]-2-yl)methyl)piperazin-1-yl)-N-((3-(1-(methyslulfonyl)piperidin-4-yl)-5-nitro-3,4-dihydro-2H-benzo[b][1,4]oxazin-7-yl)sulfonyl)benzamide]",6,1
"CN1CCC([C@H]2COc3cc(S(=O)(=O)NC(=O)c4ccc(N5CCN(CC6=C(c7ccc(Cl)cc7)CC(C)(C)CC6)CC5)cc4Oc4cnc5[nH]ccc5c4)cc([N+](=O)[O-])c3N2)CC1 [Example 2-233, (S)-2-((1H-pyrrolo[2,3-b]pyridin-5-yl)oxy)-4-(4-((4′-chloro-5,5-dimethyl-3,4,5,6-tetra-hydro-[1,1′-biphenyl]-2-yl)methyl)piperazin-1-yl)-N-((3-(1-methylpiperidin-4-yl)-5-ni-tro-3,4-dihydro-2H-benzo[b][1,4]oxazin-7-yl)sulfonyl)benzamide]",17,13

# Now those with a lower IC50 [2], led by results:
IC50 [2] [nM],Structure (SMILES),IC50 [1] [nM]
3,"CC1(C)CCC(CN2CCN(c3ccc(C(=O)NS(=O)(=O)c4cc5c(c([N+](=O)[O-])c4)N[C@@H](C4CCC(C)(O)CC4)CO5)c(Oc4cnc5[nH]ccc5c4)c3)CC2)=C(c2ccc(Cl)cc2)C1 (stereo partly drawn) [Example 2-215, (S)-2-((1H-pyrrolo[2,3-b]pyridin-5-yl)oxy)-4-(4-((4′-chloro-5,5-dimethyl-3,4,5,6-tetra-hydro-[1,1′-biphenyl]-2-yl)methyl)piperazin-1-yl)-N-((3-(4-hydroxy-4-methylcyclohex-yl)-5-nitro-3,4-dihydro-2H-benzo[b][1,4]oxazin-7-yl)sulfonyl)benzamide]",65
1,"COC(=O)N1CCC([C@@H]2COc3cc(S(=O)(=O)NC(=O)c4ccc(N5CCN(CC6=C(c7ccc(Cl)cc7)CC(C)(C)CC6)CC5)cc4Oc4cnc5[nH]ccc5c4)cc([N+](=O)[O-])c3N2)CC1 [Example 2-223, methyl (R)-4-(7-(N-(2-((1H-pyrrolo[2,3-b]pyridin-5-yl)oxy)-4-(4-((4′-chloro-5,5-dimethyl-3,4,5,6-tetrahydro-[1,1′-biphenyl]-2-yl)methyl)piperazin-1-yl)benzoyl)sulfamoyl)-5-nitro-3,4-dihydro-2H-benzo[b][1,4]oxazin-3-yl) piperidine-1-carboxylate]",11
2,"CC1(C)CCC(CN2CCN(c3ccc(C(=O)NS(=O)(=O)c4cc5c(c([N+](=O)[O-])c4)N[C@H](C4CCN(S(C)(=O)=O)CC4)CO5)c(Oc4cnc5[nH]ccc5c4)c3)CC2)=C(c2ccc(Cl)cc2)C1 [Example 2-225, (R)-2-((1H-pyrrolo[2,3-b]pyridin-5-yl)oxy)-4-(4-((4′-chloro-5,5-dimethyl-3,4,5,6-tetra-hydro-[1,1′-biphenyl]-2-yl)methyl)piperazin-1-yl)-N-((3-(1-(methylsulfonyl)piperidin-4-yl)-5-nitro-3,4-dihydro-2H-benzo[b][1,4]oxazin-7-yl)sulfonyl)benzamide]",15
1,"CN1CCC([C@@H]2COc3cc(S(=O)(=O)NC(=O)c4ccc(N5CCN(CC6=C(c7ccc(Cl)cc7)CC(C)(C)CC6)CC5)cc4Oc4cnc5[nH]ccc5c4)cc([N+](=O)[O-])c3N2)CC1 [Example 2-227, (R)-2-((1H-pyrrolo[2,3-b]pyridin-5-yl)oxy)-4-(4-((4′-chloro-5,5-dimethyl-3,4,5,6-tetra-hydro-[1,1′-biphenyl]-2-yl)methyl)piperazin-1-yl)-N-((3-(1-methylpiperidin-4-yl)-5-ni-tro-3,4-dihydro-2H-benzo[b][1,4]oxazin-7-yl)sulfonyl)benzamide]",6
1,"COC(=O)N1CCC([C@H]2COc3cc(S(=O)(=O)NC(=O)c4ccc(N5CCN(CC6=C(c7ccc(Cl)cc7)CC(C)(C)CC6)CC5)cc4Oc4cnc5[nH]ccc5c4)cc([N+](=O)[O-])c3N2)CC1 [Example 2-230, methyl (S)-4-(7-(N-(2-((1H-pyrrolo[2,3-b]pyridin-5-yl)oxy)-4-(4-((4′-chloro-5,5-dimethyl-3,4,5,6-tetrahydro-[1,1′-biphenyl]-2-yl)methyl)piperazin-1-yl)benzoyl)sulfamoyl)-5-nitro-3,4-dihydro-2H-benzo[b][1,4]oxazin-3-yl) piperidine-1-carboxylate]",2
1,"CC(=O)N1CCC([C@H]2COc3cc(S(=O)(=O)NC(=O)c4ccc(N5CCN(CC6=C(c7ccc(Cl)cc7)CC(C)(C)CC6)CC5)cc4Oc4cnc5[nH]ccc5c4)cc([N+](=O)[O-])c3N2)CC1 [Example 2-231, (S)-2-((1H-pyrrolo[2,3-b]pyridin-5-yl)oxy)-N-((3-(1-acetylpiperidin-4-yl)-5-nitro-3,4-dihydro-2H-benzo[b][1,4]oxazin-7-yl)sulfonyl)-4-(4-((4′-chloro-5,5-dimethyl-3,4,5,6-tetrahydro-[1,1′-biphenyl]-2-yl)methyl)pi-perazin-1-yl)benzamide]",5
